The values that follow come from patent publication USRE50528E1, “Compounds and compositions for modulating EGFR mutant kinase activities” (Yuhan Corporation, priority 2014, dated 2025).

Assay [1] relates to H1975 (EGFR L858R/T790M mutant). Description: Cell viability assay, H1975.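 For all read-outs here: NSCLC cells whose survival relies on EGFR L858R/T790M, exposed 72 h to serially diluted compound, ATP-based viability readout, with the H2073 line (wildtype EGFR dependent) as wildtype comparator.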 Format: cell-based. To be noted: for Selectivity over wildtype, Wildtype vs mutant H2073/H1975 (fold): cellular potency ratio; for pIC50: cellular potency, 72-hour incubation, ATPLite, read-out: EGFR Mutants H1975. A general note: ATP-based viability assays read luminescence as a measure of living cells.

A further assay deals with T1, EGFR mutant L858R/T790M (Homo sapiens, UniProt P00533, L858R/T790M).
T1 construct: truncated human JAK3, EGFR mutants such as del E746-A750; purchased Carna Biosciences
Briefly: Kinase inhibition assay, EGFR L858R/T790M.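 Note: truncated human enzyme preincubated two hours with compound, then one hour with one millimolar ATP and ULight-PolyGT peptide, Europium-labeled antibody detection, IC50.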 Format: biochemical. To be noted: read-out: EGFR mutants L858R/T790M.

The subject of a further assay is H2073 (EGFR wildtype). Briefly: Cell viability assay, H2073.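 Note: NSCLC cell line whose survival relies on wildtype EGFR, treated with serially diluted compound, cytotoxic effect judged from remaining cell viability.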 The format is cell-based. To be noted: cellular potency, 72-hour incubation, ATPLite.
Another assay addresses T2, SYK (Homo sapiens, UniProt P43405).
T2 construct: Purified human, full-length SYK, KDR; purchased Carna Biosciences
Description: Kinase inhibition assay, SYK.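 Note: purified full-length human SYK pre-incubated 30 min with compound, then ULight-TK peptide phosphorylation for 1 h, detected with Europium-labeled antibody in Lance buffer.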 Format: biochemical. To be noted: biochemical potency.

The next assay has as its target T3, EGFR mutant T790M (Homo sapiens, UniProt P00533, T790M).
T3 construct: truncated human JAK3, EGFR mutants such as del E746-A750; purchased Carna Biosciences
Briefly: Kinase inhibition assay, EGFR mutant T790M.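 Note: truncated human EGFR mutant enzyme preincubated two hours with compound, then ATP plus ULight-PolyGT peptide for one hour, Europium-labeled antibody LANCE detection, IC50.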 Particulars: biochemical potency.

For assay [2], the target named is T4, EGFR mutant Del19 (E746-A750) (Homo sapiens, UniProt P00533, DEL746-750).
T4 construct: truncated human JAK3, EGFR mutants such as del E746-A750; purchased Carna Biosciences
Briefly: Kinase inhibition assay, EGFR del E746-A750.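 Note: truncated human EGFR mutant kinase, two-hour preincubation with compound, then one-hour reaction with ATP and ULight-PolyGT peptide, LANCE Europium-antibody phosphorylation readout, IC50.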 The format is biochemical. To be noted: read-out: EGFR mutants Del19 (E746-A750).

Assay [3] deals with PC9 (EGFR del E746-A750 mutant). Description: Cell viability assay, PC9.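 For all read-outs here: NSCLC PC9 cells, whose viability relies on EGFR del E746-A750, exposed to serially diluted compound for 72 h at 37 °C, ATPLite read-out, IC50, H2073 as EGFR wildtype line.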 The format is cell-based. Particulars: for Selectivity over wildtype, Wildtype vs mutant H2073/PC9 (fold): cellular potency ratio; for pIC50: cellular potency, 72-hour incubation, ATPLite, read-out: EGFR Mutants PC9.
The target of the next assay is T5, EGFR mutant Del19/T790M (Homo sapiens, UniProt P00533, DEL746-750/T790M).
T5 construct: truncated human JAK3, EGFR mutants such as del E746-A750; purchased Carna Biosciences
Briefly: Kinase inhibition assay, EGFR del E746-A750/T790M. The format is biochemical. To be noted: read-out: EGFR mutants Del19/T790M.

The next assay deals with T6, EGFR mutant L858R (Homo sapiens, UniProt P00533, L858R).
T6 construct: truncated human JAK3, EGFR mutants such as del E746-A750; purchased Carna Biosciences
Briefly: Kinase inhibition assay, EGFR L858R.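 Note: truncated human EGFR L858R kinase with compound preincubation, ULight-PolyGT peptide phosphorylation read by Europium-antibody Lance detection, IC50.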 The format is biochemical. Particulars: read-out: EGFR mutants L858R.

pIC50: −log10 of the molar value. Where two headings read alike, the source gives them in different places. A value given as a limit tells only on which side of the number the result lay.

As to “4-(3-((dimethylamino)methyl)-4-methyl-1H-pyrrol-1-yl)-N-(3,5-dimethylphenyl)pyrimidin-2-amine [Compound 146, reference compound]”, in assay [1], the “Selectivity over wildtype, Wildtype vs mutant H2073/H1975 (fold)” value (“Selectivity … vs mutant H2073/H1975 (fold)” for short) was below 20 fold. Also, the pIC50 in [1] is below 6.00; at EGFR mutant L858R/T790M (biochemical potency, 1 mM ATP), 6.00 to 6.70; in the assay on H2073 (EGFR wildtype), below 6.00; on SYK, 6.70 to 7.70; against EGFR mutant T790M it was below 6.00; in assay [2] (biochemical potency, 1 mM ATP), below 6.00. The pIC50 in assay [3] was below 6.00; at EGFR mutant Del19/T790M (biochemical potency, 1 mM ATP), 6.00 to 6.70; at EGFR mutant L858R (biochemical potency, 1 mM ATP) it was below 6.00. Further, the “Selectivity over wildtype, Wildtype vs mutant H2073/PC9 (fold)” value (from here on “Selectivity … vs mutant H2073/PC9 (fold)”) in assay [3] is given as below 20 fold.
Take `C=CC(=O)Nc1cc(Nc2nccc(-n3cc(CN(C)C)c(-c4ccccc4)n3)n2)c(OC)cc1N1CCC1` [Compound 84, N-(2-(azetidin-1-yl)-5-(4-(4-((dimethylamino)methyl)-3-phenyl-1H-pyrazol-1-yl)pyrimidin-2-ylamino)-4-methoxyphenyl)acrylamide]: the pIC50 in [1] (Homo sapiens, NCI-H1975) was above 7.70; at EGFR mutant L858R/T790M, above 7.70; in the assay with H2073 (EGFR wildtype) (NCI-H2073), 6.70 to 7.70; against SYK, below 6.00; on EGFR mutant T790M, above 7.70; in assay [2] it was above 7.70. For the same compound, the pIC50 (in assay [3]; at EGFR mutant Del19/T790M; on EGFR mutant L858R) was above 7.70 throughout. Moreover, in assay [1], the “Selectivity … vs mutant H2073/H1975 (fold)” value is on record as below 20 fold. For the same compound, the “Selectivity … vs mutant H2073/PC9 (fold)” value in assay [3] is given as below 20 fold.
`C=CC(=O)Nc1cc(Nc2nccc(-n3cc(CN(C)C)c(C(C)(C)C)n3)n2)c(OC)cc1N1CCOCC1` [Compound 86, N-(5-(4-(3-tert-butyl-4-((dimethylamino)methyl)-1H-pyrazol-1-yl)pyrimidin-2-ylamino)-4-methoxy-2-morpholinophenyl)acrylamide]: the pIC50 is above 7.70 in [1] (Homo sapiens, NCI-H1975); above 7.70 on EGFR mutant L858R/T790M; 6.00 to 6.70 in the assay on H2073 (EGFR wildtype) (NCI-H2073); below 6.00 at SYK; 6.70 to 7.70 at EGFR mutant T790M; above 7.70 in assay [2]. The pIC50 (in [3]; at EGFR mutant Del19/T790M; on EGFR mutant L858R) was above 7.70 in each case. Further, in assay [1], the “Selectivity … vs mutant H2073/H1975 (fold)” value is reported as 20-200 fold. In [3], the “Selectivity … vs mutant H2073/PC9 (fold)” value is listed as 20-200 fold.
For `C=CC(=O)Nc1cc(Nc2nccc(-n3cc(CN(C)C)c(-c4ccccc4)n3)n2)c(OC)cc1N1CCN(C(C)=O)CC1` [Compound 135, N-(2-(4-acetylpiperazin-1-yl)-5-(4-(4-((dimethylamino)methyl)-3-phenyl-1H-pyrazol-1-yl)pyrimidin-2-ylamino)-4-methoxyphenyl)acrylamide], the pIC50 is above 7.70 at EGFR mutant L858R/T790M; below 6.00 on SYK; above 7.70 on EGFR mutant T790M; above 7.70 in [2]; above 7.70 on EGFR mutant Del19/T790M; above 7.70 on EGFR mutant L858R.
In the case of `C=CC(=O)Nc1cc(Nc2nccc(-n3cc(CN4CCC4)c(C4CC4)n3)n2)c(OC)cc1N1CCN(C(C)=O)CC1` [Compound 138, N-(2-(4-acetylpiperazin-1-yl)-5-(4-(4-(azetidin-1-ylmethyl)-3-cyclopropyl-1H-pyrazol-1-yl)pyrimidin-2-ylamino)-4-methoxyphenyl)acrylamide], the pIC50 was above 7.70 on EGFR mutant L858R/T790M; below 6.00 at SYK; above 7.70 against EGFR mutant T790M; above 7.70 in assay [2]; above 7.70 on EGFR mutant Del19/T790M; above 7.70 at EGFR mutant L858R.
As to `C=CC(=O)Nc1cc(Nc2nccc(-n3cc(CN4CCC4)c(C4CC4)n3)n2)c(OC)cc1N1CCC1` [Compound 139, N-(2-(azetidin-1-yl)-5-(4-(4-(azetidin-1-ylmethyl)-3-cyclopropyl-1H-pyrazol-1-yl)pyrimidin-2-ylamino)-4-methoxyphenyl)acrylamide], the pIC50 on EGFR mutant L858R/T790M is above 7.70; against SYK, below 6.00; on EGFR mutant T790M it was above 7.70; in [2], above 7.70; at EGFR mutant Del19/T790M it was above 7.70; at EGFR mutant L858R, above 7.70.
`C=CC(=O)Nc1cc(Nc2nccc(-n3cc(CN(C)CC)c(C4CC4)n3)n2)c(OC)cc1N1CCOCC1` [Compound 140, N-(5-(4-(3-cyclopropyl-4-((ethyl(methyl)amino)methyl)-1H-pyrazol-1-yl)pyrimidin-2-ylamino)-4-methoxy-2-morpholinophenyl)acrylamide]: the pIC50 on EGFR mutant L858R/T790M is above 7.70; on SYK it was below 6.00; at EGFR mutant T790M, above 7.70; in assay [2], above 7.70; on EGFR mutant Del19/T790M it was above 7.70; on EGFR mutant L858R, above 7.70.
Regarding `C=CC(=O)Nc1cc(Nc2ncc(F)c(-n3cc(C)c(CN4CCC4)c3)n2)c(OC)cc1N1CCC1` [Compound 141, N-(2-(azetidin-1-yl)-5-(4-(3-(azetidin-1-ylmethyl)-4-methyl-1H-pyrrol-1-yl)-5-fluoropyrimidin-2-ylamino)-4-methoxyphenyl)acrylamide], the pIC50 at EGFR mutant L858R/T790M was above 7.70; against SYK, 6.00 to 6.70; at EGFR mutant T790M, above 7.70; in [2] it was above 7.70; on EGFR mutant Del19/T790M, above 7.70; at EGFR mutant L858R it was above 7.70.
In the case of `Cc1cn(-c2ccnc(Nc3ccc(-c4ccccc4)c(C)c3)n2)cc1CN1CC(O)C1` [Compound 150, 1-((4-methyl-1-(2-(2-methylbiphenyl-4-ylamino)pyrimidin-4-yl)-1H-pyrrol-3-yl)methyl)azetidin-3-ol, reference compound], the pIC50 on EGFR mutant L858R/T790M is 6.00 to 6.70; against SYK it was below 6.00; against EGFR mutant T790M, below 6.00; in [2] it was below 6.00; on EGFR mutant Del19/T790M, below 6.00; on EGFR mutant L858R, below 6.00.
As to `COc1cc(N2CCOCC2)c([N+](=O)[O-])cc1Nc1nccc(-n2cc(CN(C)C)c(-c3ccccc3)n2)n1` [Compound 152, 4-(4-((dimethylamino)methyl)-3-phenyl-1H-pyrazol-1-yl)-N-(2-methoxy-4-morpholino-5-nitrophenyl)pyrimidin-2-amine, reference compound], the pIC50 (at EGFR mutant L858R/T790M; on SYK; against EGFR mutant T790M; in assay [2]; on EGFR mutant Del19/T790M; at EGFR mutant L858R) was below 6.00 each time.
In the case of `COc1cc(N2CCOCC2)c(N)cc1Nc1nccc(-n2cc(CN(C)C)c(-c3ccccc3)n2)n1` [Compound 153, N1-(4-(4-((dimethylamino)methyl)-3-phenyl-1H-pyrazol-1-yl)pyrimidin-2-yl)-6-methoxy-4-morpholinobenzene-1,3-diamine, reference compound], the pIC50 (at EGFR mutant L858R/T790M; against SYK; at EGFR mutant T790M; in [2]; on EGFR mutant Del19/T790M; at EGFR mutant L858R) was below 6.00 in each case.
`C=CCC(=O)Nc1cc(Nc2nccc(-n3cc(CN(C)C)c(-c4ccccc4)n3)n2)c(OC)cc1N1CCOCC1` [Compound 154, N-(5-(4-(4-((dimethylamino)methyl)-3-phenyl-1H-pyrazol-1-yl)pyrimidin-2-ylamino)-4-methoxy-2-morpholinophenyl)but-3-enamide, reference compound]: the pIC50 in assay [1] (Homo sapiens, NCI-H1975) is 6.00 to 6.70; with H2073 (EGFR wildtype) (NCI-H2073), below 6.00; in [3], 6.70 to 7.70. The “Selectivity … vs mutant H2073/H1975 (fold)” value in assay [1] was below 20 fold. Also, in assay [3], the “Selectivity … vs mutant H2073/PC9 (fold)” value is recorded as below 20 fold.
As to `CC/C=C/C(=O)Nc1cc(Nc2nccc(-n3cc(CN(C)C)c(-c4ccccc4)n3)n2)c(OC)cc1N1CCOCC1` [Compound 155, (E)-N-(5-(4-(4-((dimethylamino)methyl)-3-phenyl-1H-pyrazol-1-yl)pyrimidin-2-ylamino)-4-methoxy-2-morpholinophenyl)pent-2-enamide, reference compound], the pIC50 in assay [1] (Homo sapiens, NCI-H1975) is 6.00 to 6.70; with H2073 (EGFR wildtype) (NCI-H2073), below 6.00; in [3], 6.00 to 6.70. Moreover, the “Selectivity … vs mutant H2073/H1975 (fold)” value in assay [1] is below 20 fold. In addition, in assay [3], the “Selectivity … vs mutant H2073/PC9 (fold)” value is reported as below 20 fold.
Turning to `CC/C=C\CC(=O)Nc1cc(Nc2nccc(-n3cc(CN(C)C)c(-c4ccccc4)n3)n2)c(OC)cc1N1CCOCC1` [Compound 156, (Z)—N-(5-(4-(4-((dimethylamino)methyl)-3-phenyl-1H-pyrazol-1-yl)pyrimidin-2-ylamino)-4-methoxy-2-morpholinophenyl)hex-3-enamide, reference compound], the pIC50 in assay [1] (Homo sapiens, NCI-H1975) is below 6.00; at EGFR mutant L858R/T790M it was 6.00 to 6.70; in the assay with H2073 (EGFR wildtype) (NCI-H2073), below 6.00; at SYK it was below 6.00; in [2], below 6.00; in assay [3], below 6.00. Also, the pIC50 at EGFR mutant Del19/T790M was 6.70 to 7.70; on EGFR mutant L858R it was below 6.00. For the same compound, in [1], the “Selectivity … vs mutant H2073/H1975 (fold)” value was below 20 fold. The “Selectivity … vs mutant H2073/PC9 (fold)” value in [3] was below 20 fold.
